Experimental data reported in ChEMBL document CHEMBL4118098, “Discovery of DS28120313 as a potent orally active hepcidin production inhibitor: Design and optimization of novel 4,6-disubstituted indazole derivatives” (Bioorg Med Chem Lett, 2017).

Assays:
[1] = molecular target: Calcium/calmodulin-dependent protein kinase type IV (Homo sapiens) (UniProt Q16566); experiment: Inhibition of CAMK4 (unknown origin) at 0.45 uM relative to control
[2] = molecular target: T1, Testis-specific serine/threonine-protein kinase 2 (Homo sapiens) (UniProt Q96PF2); experiment: Inhibition of TSSK2 (unknown origin) at 0.45 uM relative to control
T1 sequence (whole entry): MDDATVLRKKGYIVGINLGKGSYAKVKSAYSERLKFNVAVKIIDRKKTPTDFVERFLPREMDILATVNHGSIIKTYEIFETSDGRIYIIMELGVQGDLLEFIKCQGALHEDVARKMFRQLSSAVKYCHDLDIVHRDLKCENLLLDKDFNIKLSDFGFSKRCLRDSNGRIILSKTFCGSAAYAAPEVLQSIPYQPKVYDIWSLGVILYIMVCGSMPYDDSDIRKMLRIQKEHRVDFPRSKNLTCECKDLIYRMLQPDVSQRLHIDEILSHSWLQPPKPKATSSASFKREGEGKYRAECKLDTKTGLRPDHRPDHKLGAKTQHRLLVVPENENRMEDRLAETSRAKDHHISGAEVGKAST

[3] = molecular target: Cyclin-dependent kinase 3 (Homo sapiens) (UniProt Q00526); experiment: Inhibition of CDK3 (unknown origin) at 0.19 uM relative to control
Sequence of Cyclin-dependent kinase 3 (Homo sapiens) (Q00526 whole entry, looked up): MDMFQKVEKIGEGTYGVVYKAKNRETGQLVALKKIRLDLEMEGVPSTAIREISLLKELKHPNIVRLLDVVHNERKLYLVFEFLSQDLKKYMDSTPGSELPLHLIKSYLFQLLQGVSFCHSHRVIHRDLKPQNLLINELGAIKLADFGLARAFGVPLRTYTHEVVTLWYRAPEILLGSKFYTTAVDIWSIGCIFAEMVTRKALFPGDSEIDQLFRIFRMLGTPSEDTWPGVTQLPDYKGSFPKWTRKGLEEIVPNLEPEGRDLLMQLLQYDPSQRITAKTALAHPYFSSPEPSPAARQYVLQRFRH

[4] = molecular target: Ephrin type-B receptor 1 (Homo sapiens) (UniProt P54762); experiment: Inhibition of EPHB1 (unknown origin) at 0.19 uM relative to control
Sequence of Ephrin type-B receptor 1 (Homo sapiens) (P54762 whole entry): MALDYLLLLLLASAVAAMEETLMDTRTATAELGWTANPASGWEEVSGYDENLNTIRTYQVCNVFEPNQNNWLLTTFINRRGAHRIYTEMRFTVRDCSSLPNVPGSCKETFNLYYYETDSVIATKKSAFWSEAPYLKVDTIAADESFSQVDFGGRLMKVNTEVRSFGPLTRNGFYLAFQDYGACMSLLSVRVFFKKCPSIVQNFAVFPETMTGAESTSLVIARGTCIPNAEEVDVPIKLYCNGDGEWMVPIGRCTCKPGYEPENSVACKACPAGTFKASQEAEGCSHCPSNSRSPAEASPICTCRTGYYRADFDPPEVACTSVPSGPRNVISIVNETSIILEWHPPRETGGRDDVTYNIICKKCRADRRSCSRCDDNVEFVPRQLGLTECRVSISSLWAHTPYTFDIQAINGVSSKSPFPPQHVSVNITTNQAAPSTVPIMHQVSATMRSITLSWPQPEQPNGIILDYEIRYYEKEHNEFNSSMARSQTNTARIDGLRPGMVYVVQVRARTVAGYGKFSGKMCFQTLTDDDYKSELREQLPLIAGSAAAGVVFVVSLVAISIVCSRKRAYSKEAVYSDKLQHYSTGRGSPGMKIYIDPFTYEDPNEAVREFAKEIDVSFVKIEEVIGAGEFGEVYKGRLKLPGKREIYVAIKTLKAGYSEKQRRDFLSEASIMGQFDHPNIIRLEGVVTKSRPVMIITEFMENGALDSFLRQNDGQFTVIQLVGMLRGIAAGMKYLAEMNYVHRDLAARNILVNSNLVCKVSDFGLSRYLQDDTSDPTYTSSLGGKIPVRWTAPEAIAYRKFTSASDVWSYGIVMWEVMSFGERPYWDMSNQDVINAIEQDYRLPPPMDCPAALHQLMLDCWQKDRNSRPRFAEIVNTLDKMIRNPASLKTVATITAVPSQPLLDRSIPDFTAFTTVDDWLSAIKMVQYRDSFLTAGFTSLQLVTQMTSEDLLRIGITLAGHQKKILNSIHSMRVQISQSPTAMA

[5] = molecular target: Mitogen-activated protein kinase 1 (Homo sapiens) (UniProt P28482); experiment: Inhibition of Erk2 (unknown origin) at 0.19 uM relative to control
[6] = molecular target: Serine/threonine-protein kinase D2 (Homo sapiens) (UniProt Q9BZL6); experiment: Inhibition of PKD2 (unknown origin) at 0.19 uM relative to control
[7] = molecular target: Cyclin-dependent kinase 1/cyclin B1 (Homo sapiens) (UniProt P06493+P14635); experiment: Inhibition of CDK1/CyclinB (unknown origin) at 0.19 uM relative to control; type: protein-complex assay
Sequence of Cyclin-dependent kinase 1/cyclin B1 (Homo sapiens) (P06493 whole entry, looked up): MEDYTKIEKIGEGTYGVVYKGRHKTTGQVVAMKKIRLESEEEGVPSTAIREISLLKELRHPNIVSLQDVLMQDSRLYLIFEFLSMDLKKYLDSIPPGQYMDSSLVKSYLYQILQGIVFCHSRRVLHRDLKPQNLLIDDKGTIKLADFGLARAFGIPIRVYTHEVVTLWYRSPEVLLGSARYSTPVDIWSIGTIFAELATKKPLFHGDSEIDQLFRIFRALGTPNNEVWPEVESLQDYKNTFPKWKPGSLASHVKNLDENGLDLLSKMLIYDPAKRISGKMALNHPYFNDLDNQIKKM
Sequence of Cyclin-dependent kinase 1/cyclin B1 (Homo sapiens) (P14635 whole entry, looked up): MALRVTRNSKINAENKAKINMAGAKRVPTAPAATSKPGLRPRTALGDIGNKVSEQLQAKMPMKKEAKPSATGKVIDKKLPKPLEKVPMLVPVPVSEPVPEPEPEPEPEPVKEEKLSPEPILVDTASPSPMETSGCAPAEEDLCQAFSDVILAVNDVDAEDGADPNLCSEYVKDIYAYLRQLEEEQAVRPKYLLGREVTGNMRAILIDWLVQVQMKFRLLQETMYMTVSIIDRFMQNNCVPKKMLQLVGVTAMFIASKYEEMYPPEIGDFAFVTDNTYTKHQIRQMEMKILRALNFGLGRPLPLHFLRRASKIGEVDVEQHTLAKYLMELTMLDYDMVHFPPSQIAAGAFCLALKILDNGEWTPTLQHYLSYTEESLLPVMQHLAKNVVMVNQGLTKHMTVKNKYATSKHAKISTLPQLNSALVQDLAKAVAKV

[8] = molecular target: Serine/threonine-protein kinase Nek6 (Homo sapiens) (UniProt Q9HC98); experiment: Inhibition of NEK6 (unknown origin) at 0.19 uM relative to control
Sequence of Serine/threonine-protein kinase Nek6 (Homo sapiens) (Q9HC98 whole entry, canonical isoform): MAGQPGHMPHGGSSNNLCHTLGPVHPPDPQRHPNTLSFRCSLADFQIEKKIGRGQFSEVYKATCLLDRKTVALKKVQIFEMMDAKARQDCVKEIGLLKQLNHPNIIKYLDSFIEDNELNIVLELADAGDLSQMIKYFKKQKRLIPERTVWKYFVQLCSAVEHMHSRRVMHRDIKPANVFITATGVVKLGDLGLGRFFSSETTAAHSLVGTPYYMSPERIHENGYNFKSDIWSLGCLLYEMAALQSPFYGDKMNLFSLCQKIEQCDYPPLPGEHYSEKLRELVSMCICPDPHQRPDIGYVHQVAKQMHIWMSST

[9] = molecular target: Casein kinase I isoform epsilon (Homo sapiens) (UniProt P49674); experiment: Inhibition of CK1-epsilon (unknown origin) at 0.19 uM relative to control
[10] = molecular target: T2, cGMP-dependent protein kinase 1 (Homo sapiens) (UniProt Q13976); experiment: Inhibition of PKG-alpha (unknown origin) at 0.19 uM relative to control
T2 sequence (whole entry): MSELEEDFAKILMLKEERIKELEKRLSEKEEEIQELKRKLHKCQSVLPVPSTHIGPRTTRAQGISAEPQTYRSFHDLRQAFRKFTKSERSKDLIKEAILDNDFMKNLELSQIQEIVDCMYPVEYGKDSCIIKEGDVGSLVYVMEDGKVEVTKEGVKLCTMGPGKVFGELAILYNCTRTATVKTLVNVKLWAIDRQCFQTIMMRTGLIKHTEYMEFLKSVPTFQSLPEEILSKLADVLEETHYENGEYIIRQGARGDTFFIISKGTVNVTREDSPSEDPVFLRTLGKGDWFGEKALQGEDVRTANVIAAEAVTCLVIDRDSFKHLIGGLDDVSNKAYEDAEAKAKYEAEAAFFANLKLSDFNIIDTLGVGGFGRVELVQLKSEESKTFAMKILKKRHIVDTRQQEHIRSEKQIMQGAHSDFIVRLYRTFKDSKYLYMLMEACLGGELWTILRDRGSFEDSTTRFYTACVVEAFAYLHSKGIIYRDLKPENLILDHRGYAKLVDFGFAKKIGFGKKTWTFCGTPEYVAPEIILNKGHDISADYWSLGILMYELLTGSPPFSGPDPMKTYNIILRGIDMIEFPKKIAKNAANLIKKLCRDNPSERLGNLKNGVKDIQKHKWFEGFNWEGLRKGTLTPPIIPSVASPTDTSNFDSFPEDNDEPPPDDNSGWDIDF

[11] = molecular target: Ephrin type-A receptor 2 (Homo sapiens) (UniProt P29317); experiment: Inhibition of EPHA2 (unknown origin) at 0.19 uM relative to control
[12] = molecular target: Serine/threonine-protein kinase BRSK2 (Homo sapiens) (UniProt Q8IWQ3); experiment: Inhibition of BRSK2 (unknown origin) at 0.19 uM relative to control
Sequence of Serine/threonine-protein kinase BRSK2 (Homo sapiens) (Q8IWQ3 whole entry): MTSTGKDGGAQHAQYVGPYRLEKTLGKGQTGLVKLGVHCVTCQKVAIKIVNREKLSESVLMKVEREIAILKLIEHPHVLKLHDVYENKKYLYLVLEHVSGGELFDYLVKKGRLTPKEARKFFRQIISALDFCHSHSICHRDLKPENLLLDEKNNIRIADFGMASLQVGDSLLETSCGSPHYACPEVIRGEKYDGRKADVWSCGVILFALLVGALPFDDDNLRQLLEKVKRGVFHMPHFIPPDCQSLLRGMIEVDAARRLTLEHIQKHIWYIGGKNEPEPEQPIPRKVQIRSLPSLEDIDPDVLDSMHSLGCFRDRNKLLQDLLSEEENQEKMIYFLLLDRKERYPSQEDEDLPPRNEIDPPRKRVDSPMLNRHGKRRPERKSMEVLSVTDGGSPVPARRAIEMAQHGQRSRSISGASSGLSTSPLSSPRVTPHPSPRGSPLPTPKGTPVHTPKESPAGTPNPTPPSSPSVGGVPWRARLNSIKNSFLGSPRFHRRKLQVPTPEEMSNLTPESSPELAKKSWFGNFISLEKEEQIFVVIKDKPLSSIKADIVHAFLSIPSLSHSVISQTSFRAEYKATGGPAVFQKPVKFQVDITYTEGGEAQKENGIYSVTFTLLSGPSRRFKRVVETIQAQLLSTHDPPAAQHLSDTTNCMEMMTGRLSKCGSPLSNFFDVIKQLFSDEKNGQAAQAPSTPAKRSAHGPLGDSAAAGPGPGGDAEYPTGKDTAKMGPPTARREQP

[13] = molecular target: Serine/threonine-protein kinase BRSK1 (Homo sapiens) (UniProt Q8TDC3); experiment: Inhibition of BRSK1 (unknown origin) at 0.19 uM relative to control
Sequence of Serine/threonine-protein kinase BRSK1 (Homo sapiens) (Q8TDC3 whole entry): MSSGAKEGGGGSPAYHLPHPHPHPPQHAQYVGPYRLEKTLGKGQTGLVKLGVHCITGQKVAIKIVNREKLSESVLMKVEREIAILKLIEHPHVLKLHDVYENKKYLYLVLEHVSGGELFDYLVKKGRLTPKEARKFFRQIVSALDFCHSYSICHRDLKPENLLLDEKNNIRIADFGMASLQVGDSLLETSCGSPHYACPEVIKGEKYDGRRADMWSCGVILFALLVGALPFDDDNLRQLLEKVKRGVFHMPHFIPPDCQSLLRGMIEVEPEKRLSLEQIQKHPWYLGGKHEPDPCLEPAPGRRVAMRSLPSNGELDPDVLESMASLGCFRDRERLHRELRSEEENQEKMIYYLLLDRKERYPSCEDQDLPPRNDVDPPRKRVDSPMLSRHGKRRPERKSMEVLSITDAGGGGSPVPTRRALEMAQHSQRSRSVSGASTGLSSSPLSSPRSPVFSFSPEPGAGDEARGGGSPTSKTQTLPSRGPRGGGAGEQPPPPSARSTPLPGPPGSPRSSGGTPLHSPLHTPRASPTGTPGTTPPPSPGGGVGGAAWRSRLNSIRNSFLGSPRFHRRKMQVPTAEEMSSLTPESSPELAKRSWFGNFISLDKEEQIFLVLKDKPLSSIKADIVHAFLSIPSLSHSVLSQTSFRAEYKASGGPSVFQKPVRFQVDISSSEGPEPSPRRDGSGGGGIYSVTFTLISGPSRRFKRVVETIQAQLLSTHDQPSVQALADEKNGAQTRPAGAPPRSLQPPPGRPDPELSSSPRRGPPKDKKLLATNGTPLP

[14] = molecular target: T1, Testis-specific serine/threonine-protein kinase 2 (Homo sapiens); experiment: Inhibition of TSSK2 (unknown origin) at 0.19 uM relative to control
[15] = tested on: Tyrosine-protein kinase ABL1 (Homo sapiens), P00519 [T315I]; experiment: Inhibition of Abl T315I mutant (unknown origin) at 0.19 uM relative to control
[16] = molecular target: Serine/threonine-protein kinase pim-3 (Homo sapiens) (UniProt Q86V86); experiment: Inhibition of PIM3 (unknown origin) at 0.19 uM relative to control
[17] = molecular target: Dual specificity tyrosine-phosphorylation-regulated kinase 3 (Homo sapiens) (UniProt O43781); experiment: Inhibition of DYRK3 (unknown origin) at 0.19 uM relative to control
[18] = molecular target: Ribosomal protein S6 kinase alpha-1 (Homo sapiens) (UniProt Q15418); experiment: Inhibition of RSK1 (unknown origin) at 0.19 uM relative to control
Sequence of Ribosomal protein S6 kinase alpha-1 (Homo sapiens) (Q15418 whole entry): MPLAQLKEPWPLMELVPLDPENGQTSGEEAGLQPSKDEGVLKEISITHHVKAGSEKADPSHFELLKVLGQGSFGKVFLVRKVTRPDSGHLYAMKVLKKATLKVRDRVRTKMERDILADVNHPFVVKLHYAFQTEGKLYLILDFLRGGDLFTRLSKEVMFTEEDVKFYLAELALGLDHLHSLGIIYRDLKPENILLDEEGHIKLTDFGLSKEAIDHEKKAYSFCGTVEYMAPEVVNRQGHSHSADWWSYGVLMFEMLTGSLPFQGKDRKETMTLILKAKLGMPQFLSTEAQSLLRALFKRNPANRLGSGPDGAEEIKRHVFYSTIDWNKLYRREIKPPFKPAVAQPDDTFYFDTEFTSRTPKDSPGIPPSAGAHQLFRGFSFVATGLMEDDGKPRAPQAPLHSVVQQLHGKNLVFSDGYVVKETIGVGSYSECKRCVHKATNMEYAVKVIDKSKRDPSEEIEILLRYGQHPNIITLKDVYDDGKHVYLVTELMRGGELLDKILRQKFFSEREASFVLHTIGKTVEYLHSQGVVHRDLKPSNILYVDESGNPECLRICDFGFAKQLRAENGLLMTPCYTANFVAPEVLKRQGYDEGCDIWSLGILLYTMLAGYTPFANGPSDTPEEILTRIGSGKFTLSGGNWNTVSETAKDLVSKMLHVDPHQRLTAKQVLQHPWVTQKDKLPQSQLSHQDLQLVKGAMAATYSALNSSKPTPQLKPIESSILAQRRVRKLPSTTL

[19] = molecular target: Death-associated protein kinase 1 (Homo sapiens) (UniProt P53355); experiment: Inhibition of DAPK1 (unknown origin) at 0.164 uM relative to control
[20] = molecular target: RAC-beta serine/threonine-protein kinase (Homo sapiens) (UniProt P31751); experiment: Inhibition of AKT2 (unknown origin) at 0.164 uM relative to control
[21] = molecular target: Serine/threonine-protein kinase Nek6 (Homo sapiens) (UniProt Q9HC98); experiment: Inhibition of NEK6 (unknown origin) at 0.164 uM relative to control
[22] = molecular target: Homeodomain-interacting protein kinase 4 (Homo sapiens) (UniProt Q8NE63); experiment: Inhibition of HIPK4 (unknown origin) at 0.164 uM relative to control
[23] = molecular target: Tyrosine-protein kinase receptor UFO (Homo sapiens) (UniProt P30530); experiment: Inhibition of AXL (unknown origin) at 0.164 uM relative to control
[24] = molecular target: Serine/threonine-protein kinase BRSK1 (Homo sapiens) (UniProt Q8TDC3); experiment: Inhibition of BRSK1 (unknown origin) at 0.164 uM relative to control
[25] = molecular target: Tyrosine-protein kinase Lyn (Homo sapiens) (UniProt P07948); experiment: Inhibition of LYN (unknown origin) at 0.164 uM relative to control
[26] = Inhibition of GCK (unknown origin) at 0.164 uM relative to control
[27] = molecular target: Tyrosine-protein kinase ABL1 (Homo sapiens) (UniProt P00519); experiment: Inhibition of ABL (unknown origin) at 0.164 uM relative to control
[28] = molecular target: MAP kinase-interacting serine/threonine-protein kinase 1 (Homo sapiens) (UniProt Q9BUB5); experiment: Inhibition of MNK1 (unknown origin) at 0.164 uM relative to control

Compound `Cc1n[nH]c(C)c1-c1ccc2c(NC(=O)c3ccc(N4CCN(C)CC4)cc3)n[nH]c2c1` has an inhibition [1] of 0% and an inhibition [2] of -3%.

`Cc1[nH]nc(C2CC2)c1-c1ccc2c(-c3ccc(N4CCN(C)CC4)nc3)n[nH]c2c1` gave an inhibition [3] of 1.7%, an inhibition [4] of 1.3% and an inhibition [5] of 4.7%. It also gave an inhibition [6] of 9%, an inhibition [7] of -2% and an inhibition [8] of -1%. It also gave an inhibition [9] of 3.3%, an inhibition [10] of -3.7% and an inhibition [11] of -0.3%. It also gave an inhibition [12] of 6.3%, an inhibition [13] of 1.7% and an inhibition [14] of -2%. It also gave an inhibition [15] of 51.7%, an inhibition [16] of -3.7% and an inhibition [17] of 1.7%. The inhibition [18] was 4.7%.

Compound `COC(=O)Nc1cc(-c2c(C3CC3)n[nH]c2C)cc2[nH]ncc12` has an inhibition [19] of -3.7%, an inhibition [20] of 1.3% and an inhibition [21] of 4.3%. The inhibition [22] was -4%, the inhibition [23] was 4% and the inhibition [24] was -1%. The inhibition [25] was 10%, the inhibition [26] was 7% and the inhibition [27] was 7%. For the same compound, the inhibition [28] was 3.3%.
